Experiments:
MV4-11 = assay: Cell growth inhibitory test MV4-11 (WST-1); format: cell-based, human; details: Homo sapiens, MV4-11, 72 h, MV4-11 cells, 3 days culture
Procedure: Pharmacological Test Example 2
Cell Growth Inhibitory Test
MV4-11 (ATCC number: CRL-9591) as human leukemia cells was seeded in an amount of 3×10^3 using a DMEM medium containing 10% fetal calf serum (purchased from GIBCO) in a 96-well flat bottom plate.
(§1) A solution of a test compound in dimethyl sulfoxide was added to each well and was cultured in a 5% carbon dioxide incubator for 3 days. Three days after the initiation of the culture, 10 μl of a WST-1 solution in Cell Counting Kit (purchased from Wako Pure Chemical Industries, Ltd.) was added to each well for a color reaction. After proper color development, the absorbance was measured with a microplate reader under conditions of measurement wavelength 450 nm and reference wavelength 650 nm. The growth ratio for each well was determined by presuming the absorbance without the addition of the medicament to be 100% growth ratio and the absorbance of the well without seeding of the cells to be 0% growth ratio. The concentration of the test compound was varied on several levels, the cell growth ratio for each case was determined, and the concentration of the test compound necessary for inhibiting 50% of cell growth ratio (IC50) was calculated.

MOLM13 [1] = assay: Cell growth inhibitory activities on cultured human leukemia cells MOLM-13 (WST-1); format: cell-based; details: Homo sapiens, MOLM-13, 72 h, 3 days culture
Procedure: Pharmacological Test Example 4
Cell Growth Inhibitory Activities on Cultured Human Leukemia Cells
as §1, with “Human leukemia cells MOLM13 (subdivided from Hayashibara Biochemical Laboratories, Inc.) were seeded in an amount of 3×10^3 using a DMEM medium containing 10% fetal calf serum (purchased from GIBCO) in a 96-well flat bottom plate. A solution” for “A solution”

MOLM13 [2] = assay: Cell growth inhibitory activity using MTT method (MOLM13); format: cell-based, human; details: Homo sapiens, MOLM-13, 72 h, MOLM13 cells
Procedure: Pharmacological Test Example 3
Measurement of Cell Growth Inhibitory Activity Using MTT Method
Human leukemia cell line MOLM13 (subdivided from Hayashibara Biochemical Laboratories, Inc.) was cultured in an RPMI medium containing 10% fetal calf serum (purchased from Asahi Techno Glass Corporation) within a 5% carbon dioxide incubator until the cell density reached 50 to 90% of the maximum cell density. These cells were seeded into wells, containing an RPMI medium containing 10% fetal calf serum, in a 96-well flat bottom plate in an amount of […] per well. The amount of the solution of the medium in each well was brought to 100 μl, and a test compound was added thereto to 500 ng, 100 ng, 20 ng, and 4 ng per ml. After culture within an incubator for 72 hr, 10 μl of a 5 mg/ml MTT (3-(4,5-dimethylthiazol-2-yl)-2,5-diphenyl tetrazolium bromide) solution (purchased from SIGMA) was added to the medium, and a reaction was allowed to proceed for 4 hr. Thereafter, 100 μl of a 0.04 N hydrochloric acid-isopropanol solution was added to completely dissolve the resultant MTT formazan crystal. After the dissolution, absorbance at 550 nm was measured using 620 nm as a reference wavelength with a microplate reader (DIGISCAN) (It is regarded that, in the MTT method, the viable cell count is reflected, and linearity is observed in a cell count per well range of 5×10^5 to 2×10^2 cells). After 72 hr, the absorbance of only the medium free from cells was subtracted from the absorbance of the well without the addition of the test compound to determine a value which was presumed to be 100%. On the other hand, the absorbance with the addition of the compound was expressed in terms of % growth.

For COc1cc2nccc(Oc3ccc(NC(=O)NCCC(C)(C)C)cc3OC)c2cc1OC [Compound 5, 1-[4-(6,7-Dimethoxy-quinolin-4-yloxy)-3-methoxy-phenyl]-3-(3,3-dimethyl-butyl)-urea], the IC50 (MV4-11) was 23 nM, the IC50 (MOLM13 [1]) was 36 nM and the IC50 (MOLM13 [2]) was 93.1 nM.
COc1cc2nccc(Oc3ccc(NC(=O)NCCC4CCCCC4)cc3F)c2cc1OC [Compound 16, 1-(2-Cyclohexyl-ethyl)-3-[4-(6,7-dimethoxy-quinolin-4-yloxy)-3-fluoro-phenyl]-urea] showed an IC50 (MV4-11) of 4 nM, an IC50 (MOLM13 [1]) of 7 nM and an IC50 (MOLM13 [2]) of 18.8 nM.
Molecule COc1cc2nccc(Oc3ccc(NC(=O)NCCC4CCCCC4)cc3Cl)c2cc1OC [Compound 17, 1-[3-Chloro-4-(6,7-dimethoxy-quinolin-4-yloxy)-phenyl]-3-(2-cyclohexyl-ethyl)-urea] has an IC50 (MV4-11) of 17 nM, an IC50 (MOLM13 [1]) of 27 nM and an IC50 (MOLM13 [2]) of 20.5 nM.
Molecule COc1cc2nccc(Oc3ccc(NC(=O)NCCC4CCCC4)cc3F)c2cc1OC [Compound 18, 1-(2-Cyclopentyl-ethyl)-3-[4-(6,7-dimethoxy-quinolin-4-yloxy)-3-fluoro-phenyl]-urea] has an IC50 (MV4-11) of 1 nM, an IC50 (MOLM13 [1]) of 2 nM and an IC50 (MOLM13 [2]) of 40.3 nM.
COc1cc2nccc(Oc3ccc(NC(=O)NC4CCCCC4)cc3)c2cc1OC [Compound 26, 1-Cyclohexyl-3-[4-(6,7-dimethoxy-quinolin-4-yloxy)-phenyl]-urea] was tested, and the IC50 (MV4-11) was 12 nM, the IC50 (MOLM13 [1]) was 18 nM and the IC50 (MOLM13 [2]) was 31.3 nM.
With COc1cc2c(Oc3ccc(NC(=O)NCCC(C)(C)C)c(Cl)c3)ccnc2cc1OCCCN1CCCC1 [Compound 45, 1-{2-Chloro-4-[6-methoxy-7-(3-pyrrolidin-1-yl-propoxy)-quinolin-4-yloxy]-phenyl}-3-(3,3-dimethyl-butyl)-urea] the IC50 (MV4-11) was 118 nM, the IC50 (MOLM13 [1]) was 140 nM and the IC50 (MOLM13 [2]) was 255 nM.
Molecule COc1cc2c(Oc3ccc(NC(=O)NCCC(C)(C)C)c(Cl)c3)ccnc2cc1OCCCN1CCCCC1 [Compound 46, 1-{2-Chloro-4-[6-methoxy-7-(3-piperidin-1-yl-propoxy)-quinolin-4-yloxy]-phenyl}-3-(3,3-dimethyl-butyl)-urea] has an IC50 (MV4-11) of 145 nM, an IC50 (MOLM13 [1]) of 123 nM and an IC50 (MOLM13 [2]) of 76.8 nM.
Work on CCN(CC)CCCOc1cc2nccc(Oc3ccc(NC(=O)NCCC(C)(C)C)c(Cl)c3)c2cc1OC [Compound 47, 1-{2-Chloro-4-[7-(3-diethylamino-propoxy)-6-methoxy-quinolin-4-yloxy]-phenyl}-3-(3,3-dimethyl-butyl)-urea] yielded an IC50 (MV4-11) of 51 nM, an IC50 (MOLM13 [1]) of 60 nM and an IC50 (MOLM13 [2]) of 135 nM.
COc1cc2c(Oc3ccc(NC(=O)NCCC(C)(C)C)cc3)ccnc2cc1OCCN1CC(C)CC(C)C1 (centres unmarked) [Compound 53, 1-(3,3-Dimethyl-butyl)-3-(4-{7-[2-(3,5-dimethyl-piperidin-1-yl)-ethoxy]-6-methoxy-quinolin-4-yloxy}-phenyl)-urea] was tested, and the IC50 (MV4-11) was 4 nM, the IC50 (MOLM13 [1]) was 13 nM and the IC50 (MOLM13 [2]) was 16.7 nM.
COc1cc2c(Oc3ccc(NC(=O)NCCC(C)(C)C)cc3)ccnc2cc1OCCCN1CC(C)CC(C)C1 (centres unmarked) [Compound 54, 1-(3,3-Dimethyl-butyl)-3-(4-{7-[3-(3,5-dimethyl-piperidin-1-yl)-propoxy]-6-methoxy-quinolin-4-yloxy}-phenyl)-urea] gave an IC50 (MV4-11) of 3 nM, an IC50 (MOLM13 [1]) of 10 nM and an IC50 (MOLM13 [2]) of 19.7 nM.
In the case of COc1cc2c(Oc3ccc(NC(=O)NC4CCCC(C)(C)C4)cc3F)ccnc2cc1OCCN1CCCCC1 (centres unmarked) [Compound 55, 1-(3,3-Dimethyl-cyclohexyl)-3-{3-fluoro-4-[6-methoxy-7-(2-piperidin-1-yl-ethoxy)-quinolin-4-yloxy]-phenyl}-urea], the IC50 (MV4-11) is reported as 6 nM, the IC50 (MOLM13 [1]) is reported as 25 nM and the IC50 (MOLM13 [2]) is reported as 36.8 nM.
With COc1cc2c(Oc3ccc(NC(=O)NC4CC(C)CC(C)(C)C4)cc3F)ccnc2cc1OCCN1CCCCC1 (centres unmarked) [Compound 56, 1-{3-Fluoro-4-[6-methoxy-7-(2-piperidin-1-yl-ethoxy)-quinolin-4-yloxy]-phenyl}-3-(3,3,5-trimethyl-cyclohexyl)-urea] the IC50 (MV4-11) was 14 nM, the IC50 (MOLM13 [1]) was 26 nM and the IC50 (MOLM13 [2]) was 11.3 nM.
Work on COc1cc2c(Oc3ccc(NC(=O)NC4CC(C)CC(C)(C)C4)c(F)c3)ccnc2cc1OCCN1CCCCC1 (centres unmarked) [Compound 57, 1-{2-Fluoro-4-[6-methoxy-7-(2-piperidin-1-yl-ethoxy)-quinolin-4-yloxy]-phenyl}-3-(3,3,5-trimethyl-cyclohexyl)-urea] yielded an IC50 (MV4-11) of 19 nM, an IC50 (MOLM13 [1]) of 29 nM and an IC50 (MOLM13 [2]) of 120 nM.
For COc1cc2c(Oc3ccc(NC(=O)NCCC4CCCCC4)cc3F)ccnc2cc1OCCN1CCCCC1 [Compound 58, 1-(2-Cyclohexyl-ethyl)-3-{3-fluoro-4-[6-methoxy-7-(2-piperidin-1-yl-ethoxy)-quinolin-4-yloxy]-phenyl}-urea], the IC50 (MV4-11) was 4 nM, the IC50 (MOLM13 [1]) was 17 nM and the IC50 (MOLM13 [2]) was 51.6 nM.
In the case of COc1cc2c(Oc3ccc(NC(=O)NCCC(C)(C)C)c(F)c3)ccnc2cc1OCCN1C(C)CCCC1C (centres unmarked) [Compound 60, 1-(3,3-Dimethyl-butyl)-3-(4-{7-[2-(2,6-dimethyl-piperidin-1-yl)-ethoxy]-6-methoxy-quinolin-4-yloxy}-2-fluoro-phenyl)-urea], the IC50 (MV4-11) is reported as 33 nM, the IC50 (MOLM13 [1]) is reported as 59 nM and the IC50 (MOLM13 [2]) is reported as 108 nM.
COc1cc2c(Oc3ccc(NC(=O)NCCC(C)(C)C)c(F)c3)ccnc2cc1OCCN1C(C)(C)CCCC1(C)C [Compound 61, 1-(3,3-Dimethyl-butyl)-3-(2-fluoro-4-{6-methoxy-7-[2-(2,2,6,6-tetramethyl-piperidin-1-yl)-ethoxy]-quinolin-4-yloxy}-phenyl)-urea] was tested, and the IC50 (MV4-11) was 57 nM and the IC50 (MOLM13 [1]) was 138 nM.
COc1cc2c(Oc3ccc(NC(=O)NCCC(C)(C)C)cc3F)ccnc2cc1OCCN1C(C)CCCC1C (centres unmarked) [Compound 62, 1-(3,3-Dimethyl-butyl)-3-(4-{7-[2-(2,6-dimethyl-piperidin-1-yl)-ethoxy]-6-methoxy-quinolin-4-yloxy}-3-fluoro-phenyl)-urea] showed an IC50 (MV4-11) of 4 nM, an IC50 (MOLM13 [1]) of 7 nM and an IC50 (MOLM13 [2]) of 26.5 nM.
COc1cc2c(Oc3ccc(NC(=O)NCCC(C)(C)CO)c(F)c3)ccnc2cc1OCCN1CCCCC1 [Compound 63, 1-{2-Fluoro-4-[6-methoxy-7-(2-piperidin-1-yl-ethoxy)-quinolin-4-yloxy]-phenyl}-3-(4-hydroxy-3,3-dimethyl-butyl)-urea] showed an IC50 (MV4-11) of 10 nM, an IC50 (MOLM13 [1]) of 22 nM and an IC50 (MOLM13 [2]) of 47.8 nM.
COc1cc2c(Oc3ccc(NC(=O)NCCC4CCCCC4)c(F)c3)ccnc2cc1OCCN1CCCCC1 [Compound 64, 1-(2-Cyclohexyl-ethyl)-3-{2-fluoro-4-[6-methoxy-7-(2-piperidin-1-yl-ethoxy)-quinolin-4-yloxy]-phenyl}-urea] gave an IC50 (MV4-11) of 13 nM, an IC50 (MOLM13 [1]) of 19 nM and an IC50 (MOLM13 [2]) of 195 nM.
Work on COc1cc2c(Oc3ccc(NC(=O)NCCC(C)(C)C)cc3)ccnc2cc1OCCN1CCOCC1 [Compound 66, 1-(3,3-Dimethyl-butyl)-3-{4-[6-methoxy-7-(2-morpholin-4-yl-ethoxy)-quinolin-4-yloxy]-phenyl}-urea] yielded an IC50 (MV4-11) of less than 1 nM and an IC50 (MOLM13 [1]) of less than 1 nM.
COc1cc2c(Oc3ccc(NC(=O)NCCC4CCCCCC4)c(F)c3)ccnc2cc1OCCN1CC(C)OC(C)C1 (centres unmarked) [Compound 71, 1-(2-Cycloheptyl-ethyl)-3-(4-{7-[2-(2,6-dimethyl-morpholin-4-yl)-ethoxy]-6-methoxy-quinolin-4-yloxy}-2-fluoro-phenyl)-urea] gave an IC50 (MV4-11) of 15 nM and an IC50 (MOLM13 [1]) of 27 nM.
With COc1cc2c(Oc3ccc(NC(=O)NCCC(C)(C)C)c(Cl)c3)ccnc2cc1OCCN1CCCCCC1 [Compound 74, 1-{4-[7-(2-Azepan-1-yl-ethoxy)-6-methoxy-quinolin-4-yloxy]-2-chloro-phenyl}-3-(3,3-dimethyl-butyl)-urea] the IC50 (MV4-11) was 255 nM and the IC50 (MOLM13 [1]) was 244 nM.

Reference: US20080207617A1, “Quinoline Derivatives and Quinazoline Derivatives Inhibiting Autophosphrylation of Flt3 and Medicinal Compositions Containing the Same” (KIRIN BEER KABUSHIKI KAISHA, priority 2002, published 2008)
